Structures are written as SMILES.

This is an account of results in EP1333824B1, “TREATMENT OF SEXUAL DYSFUNCTION WITH BOMBESIN RECEPTOR ANTAGONISTS” (Warner-Lambert Company LLC, priority 2000, dated 2002).

For one test, the system named is Sprague Dawley male rats. As to the kind of experiment: Sexual behaviour of normal (sexually vigorous) male rats. Type of test: in vivo, rat. To be noted: Compound (1) 15mg/kg or Fluoxetine 20mg/kg i.p. 1h before tests, vs vehicle. The protocol:
Sprague Dawley male rats (Charles River, UK) were kept, 4 rats per cage, in a reversed lighting regime (12:12 hours, lights off at 5.00 h), with free access to food and water. The rats were pre-selected by being presented with a receptive female at 4 days intervals, i.e. every third day (having 2 clear days between presentations) until completing 6-7 days of baseline determination. The animals showing consistently vigorous behaviour (ejaculatory latencies <300s) were chosen for further experiments (n=24). Animals were randomised into three groups. All animals received all three treatments following a latin-square design. Treatments were administered once a week, with a baseline test in between treatments (4 days intervals between baseline and test day). […] All treatments were administered i.p. in a 1ml/kg volume, 1h before tests.
For all the sexual behaviour tests, the males were placed in an observation arena (50-60 cm diameter), starting 5 hours into the dark cycle and observed under red illumination. Three to 4 minutes after placing the male in the arena, a receptive female (ovariectomised, bearing a 7 mm Silastic implant of oestradiol benzoate) was introduced to the arena and the following parameters noted: Mount Latency: time (in seconds) taken between introduction of female and first mount. A maximum time of 15 minutes (900 seconds) was allowed, and the test terminated if no mounts were recorded within that time (Figure 11), Intromission Latency: time (in seconds) taken between introduction of female and first intromission (Figure 12), Number of Mounts: to reach ejaculation. When ejaculation was not reached, the number of mounts was not analyzed, Number of Intromissions: to reach ejaculation. When ejaculation was not reached, the number of intromissions was not analyzed (Figure 13 is number of mounts + intromissions), Ejaculation Latency: time (in seconds) taken from first intromission to ejaculation. A maximum time of 30 minutes (1800 seconds) was given, and the test terminated if ejaculation was not achieved in that time (Figure 14), and Refractory Period: time (in seconds) taken from ejaculation to the first mount of the next series of sexual activity. In those animals reaching ejaculation the test was terminated at the end of the refractory period, as indicated by the first mount of the next sexual cycle (Figure 15).
A one-way ANOVA followed by Dunnett's t test was used to compare treated vs vehicle groups each day of testing, for all the sexual behaviour parameters.

Test [1] has as its system Ovariectomised adult female Sprague Dawley rats. Put plainly: Female rat sexual proceptivity test (time investigating male vs female stimulus). The format is in vivo. To be noted: Example 1; i.p., 3 and 10mg/kg in 50% 2-hydroxypropyl-β-cyclodextrin, 1h before tests.

`COc1ccc(C2(CNC(=O)[C@](C)(Cc3c[nH]c4ccccc34)NC(=O)Nc3ccc([N+](=O)[O-])cc3)CCCCC2)nc1` [Compound (1), (S) 3-(1H-Indol-3-yl)-N-[1-(5-methoxy-pyridin-2-yl)-cyclohexyl-methyl]-2-methyl-2-[3-(4-nitro-phenyl)-ureido]-propionamide]: in the test on Sprague Dawley male rats, the Ejaculation latency entry is “no effect”, the Intromission latency entry is on record as “no effect”, the Mount latency result was “no effect” and the Refractory period result is “no effect”. Further, in the test with Sprague Dawley male rats, the “number of mounts and intromissions required to achieve ejaculation” value was “no effect”. Moreover, in test [1], the “MED (increase in percentage of time spent investigating the male stimulus)” value is 10 mg/kg.
